Data on three compounds can be found in ChEMBL document CHEMBL1201862, “PubChem BioAssay data set” (2004).

Experiment [1] concerns the target Serine/threonine-protein kinase TAO1 (Homo sapiens, UniProt Q7L7X3). In kind it is functional.
Experiment [2] deals with High affinity nerve growth factor receptor (Homo sapiens, UniProt P04629). In kind it is functional.
For a further experiment, the target named is Aurora kinase A (Homo sapiens, UniProt O14965). In kind it is functional.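 Note: value from the Navigating the Kinome kinase panel profiling, panel entry STK6.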
The target of experiment [3] is Serine/threonine-protein kinase pim-1 (Homo sapiens, UniProt P11309). The format is functional.
The target of experiment [4] is Dual specificity protein kinase CLK4 (Homo sapiens, UniProt Q9HAZ1). The format is functional.
For experiment [5], the target named is Platelet-derived growth factor receptor beta (Homo sapiens, UniProt P09619). The format is functional.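 Note: value comes from a kinome panel, with PDGFRB tested as one panel member.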
Experiment [6] has as its target Hepatocyte growth factor receptor (Homo sapiens, UniProt P08581). In kind it is functional.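 Note: kinase panel profiling across the kinome, with MET as the panel member.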
The target of experiment [7] is Insulin-like growth factor 1 receptor (Homo sapiens, UniProt P08069). In words: Navigating the Kinome. Panel member name: IGF1R. The format is functional.
In experiment [8] the target is Mitogen-activated protein kinase kinase kinase kinase 4 (Homo sapiens, UniProt O95819). The format is functional.
In experiment [9] the target is Tyrosine-protein kinase BTK (Homo sapiens, UniProt Q06187). In kind it is functional.
The target of experiment [10] is Rho-associated protein kinase 1 (Homo sapiens, UniProt Q13464). In kind it is functional.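 Note: measured within a broad kinome-wide panel profiling many kinases.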
The target of experiment [11] is Macrophage-stimulating protein receptor (Homo sapiens, UniProt Q04912). In words: Navigating the Kinome. Panel member name: MST1R. The format is functional.
For experiment [12], the target named is Cyclin-dependent kinase 8 (Homo sapiens, UniProt P49336). Briefly: Navigating the Kinome. Panel member name: CDK8. The format is functional.
In a further experiment the target is Focal adhesion kinase 1 (Homo sapiens, UniProt Q05397). The format is functional.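 Note: measured as one member of a kinome panel.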
The target of experiment [13] is Serine/threonine-protein phosphatase PP1-alpha catalytic subunit (Homo sapiens, UniProt P62136). In words: PP1 phosphatase inhibitors, dose response, biochemical, fluorescence (AID 2394).
In experiment [14] the target is T1, Caspase-3 (Homo sapiens, UniProt P42574).
T1 sequence (P42574 whole entry): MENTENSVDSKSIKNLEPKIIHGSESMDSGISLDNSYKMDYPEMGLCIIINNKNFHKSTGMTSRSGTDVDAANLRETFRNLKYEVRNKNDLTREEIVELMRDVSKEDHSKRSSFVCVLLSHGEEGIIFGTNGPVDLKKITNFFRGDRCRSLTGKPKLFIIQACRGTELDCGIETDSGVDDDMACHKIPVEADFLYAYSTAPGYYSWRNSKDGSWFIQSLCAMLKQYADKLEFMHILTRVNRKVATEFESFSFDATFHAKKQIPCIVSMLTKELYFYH
In kind it is functional.

Experiment [15] concerns the target T1, Caspase-3. In words: SAR Analysis of small molecule inhibitors of Sentrin-specific proteases (SENPs) using a Caspase-3 Selectivity assay. [Related pubchem assays (depositor defined):AID2540, AID2599, AID434973, AID489001]. The format is functional.
Experiment [16] concerns the target T2, Apoptotic protease-activating factor 1 (Homo sapiens, UniProt O14727).
T2 sequence (O14727 whole entry): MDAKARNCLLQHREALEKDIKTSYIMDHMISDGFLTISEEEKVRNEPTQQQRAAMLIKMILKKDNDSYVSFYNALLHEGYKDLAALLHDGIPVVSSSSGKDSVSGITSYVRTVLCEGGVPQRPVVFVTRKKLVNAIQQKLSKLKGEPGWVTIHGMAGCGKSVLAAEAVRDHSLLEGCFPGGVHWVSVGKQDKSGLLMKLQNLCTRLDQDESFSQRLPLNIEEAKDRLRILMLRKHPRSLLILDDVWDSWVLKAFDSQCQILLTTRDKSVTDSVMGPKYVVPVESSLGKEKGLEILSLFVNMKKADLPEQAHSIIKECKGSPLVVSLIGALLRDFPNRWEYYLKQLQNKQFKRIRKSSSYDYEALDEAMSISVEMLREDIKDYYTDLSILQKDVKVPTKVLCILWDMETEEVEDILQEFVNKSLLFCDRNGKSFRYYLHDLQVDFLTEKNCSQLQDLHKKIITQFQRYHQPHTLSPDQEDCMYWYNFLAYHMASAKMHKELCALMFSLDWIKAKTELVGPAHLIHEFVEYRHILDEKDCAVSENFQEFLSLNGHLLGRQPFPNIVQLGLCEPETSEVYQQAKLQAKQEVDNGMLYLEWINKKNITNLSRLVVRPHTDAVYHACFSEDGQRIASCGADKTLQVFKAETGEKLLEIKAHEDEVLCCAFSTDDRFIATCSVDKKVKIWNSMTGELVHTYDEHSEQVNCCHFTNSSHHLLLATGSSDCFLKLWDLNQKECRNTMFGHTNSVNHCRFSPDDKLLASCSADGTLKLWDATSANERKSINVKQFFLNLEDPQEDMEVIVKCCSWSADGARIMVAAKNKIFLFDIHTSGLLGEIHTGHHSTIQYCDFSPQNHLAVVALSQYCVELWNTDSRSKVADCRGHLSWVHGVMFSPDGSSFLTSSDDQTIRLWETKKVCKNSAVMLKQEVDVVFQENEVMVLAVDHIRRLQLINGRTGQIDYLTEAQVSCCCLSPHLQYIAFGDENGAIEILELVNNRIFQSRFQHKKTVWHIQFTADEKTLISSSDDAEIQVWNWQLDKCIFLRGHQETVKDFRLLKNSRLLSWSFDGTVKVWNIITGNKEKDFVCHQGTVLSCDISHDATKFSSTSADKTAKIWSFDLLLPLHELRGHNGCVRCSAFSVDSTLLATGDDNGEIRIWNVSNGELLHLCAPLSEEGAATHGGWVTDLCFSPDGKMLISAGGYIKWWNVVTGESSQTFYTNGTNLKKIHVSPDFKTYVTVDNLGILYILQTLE
The format is functional.

Experiment [17] is described as follows: activation of PKA-R1A holoenzyme dissociation, dose response, counter-screen for PKA-R2B activator project, biochemical, Cy5-IP20 fluorescence polarization, 1536-well, triplicate (AID 504896). In general terms: A counterscreen serves to expose hits that act by an unwanted route or on another target.
In a further experiment the test system is HeLa. Briefly: HeLa cell cytotoxicity, dose response, cytotoxicity control, 24 h, cherry-picked samples (AID 504726).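 Note: potency for cytotoxicity as loss of luminescence signal.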 The format is functional, cell-based. To be noted: Homo sapiens.
Experiment [18] in a line: Fluorescence polarization-based biochemical high throughput dose response assay for activators of the Protein Kinase A-R2B (PKA-R2B) complex. [Related pubchem assays (depositor defined):AID504700, AID504704, AID504796, AID504797].

The source made the active and inactive calls. A value given as a limit tells only on which side of the number the result lay.

Tyrosine-protein kinase BTK, sequence (Q06187 whole entry): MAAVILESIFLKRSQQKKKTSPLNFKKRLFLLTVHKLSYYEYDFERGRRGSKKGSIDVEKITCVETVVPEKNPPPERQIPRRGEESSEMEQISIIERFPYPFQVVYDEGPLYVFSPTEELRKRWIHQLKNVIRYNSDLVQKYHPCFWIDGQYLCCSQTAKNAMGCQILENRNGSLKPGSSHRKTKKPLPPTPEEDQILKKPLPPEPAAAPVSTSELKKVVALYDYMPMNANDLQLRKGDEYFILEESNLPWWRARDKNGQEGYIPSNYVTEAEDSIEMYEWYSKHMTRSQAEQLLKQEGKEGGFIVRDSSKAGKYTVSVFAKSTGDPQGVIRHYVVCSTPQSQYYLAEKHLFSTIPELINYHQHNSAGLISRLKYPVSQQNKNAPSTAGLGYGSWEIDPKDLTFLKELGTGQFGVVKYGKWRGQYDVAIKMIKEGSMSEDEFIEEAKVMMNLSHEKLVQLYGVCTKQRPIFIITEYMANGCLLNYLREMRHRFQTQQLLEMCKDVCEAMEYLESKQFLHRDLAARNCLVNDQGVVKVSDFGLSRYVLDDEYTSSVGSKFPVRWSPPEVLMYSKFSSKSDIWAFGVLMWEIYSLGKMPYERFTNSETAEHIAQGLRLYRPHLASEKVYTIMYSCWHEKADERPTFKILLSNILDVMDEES
Serine/threonine-protein kinase TAO1, sequence (Q7L7X3 whole entry): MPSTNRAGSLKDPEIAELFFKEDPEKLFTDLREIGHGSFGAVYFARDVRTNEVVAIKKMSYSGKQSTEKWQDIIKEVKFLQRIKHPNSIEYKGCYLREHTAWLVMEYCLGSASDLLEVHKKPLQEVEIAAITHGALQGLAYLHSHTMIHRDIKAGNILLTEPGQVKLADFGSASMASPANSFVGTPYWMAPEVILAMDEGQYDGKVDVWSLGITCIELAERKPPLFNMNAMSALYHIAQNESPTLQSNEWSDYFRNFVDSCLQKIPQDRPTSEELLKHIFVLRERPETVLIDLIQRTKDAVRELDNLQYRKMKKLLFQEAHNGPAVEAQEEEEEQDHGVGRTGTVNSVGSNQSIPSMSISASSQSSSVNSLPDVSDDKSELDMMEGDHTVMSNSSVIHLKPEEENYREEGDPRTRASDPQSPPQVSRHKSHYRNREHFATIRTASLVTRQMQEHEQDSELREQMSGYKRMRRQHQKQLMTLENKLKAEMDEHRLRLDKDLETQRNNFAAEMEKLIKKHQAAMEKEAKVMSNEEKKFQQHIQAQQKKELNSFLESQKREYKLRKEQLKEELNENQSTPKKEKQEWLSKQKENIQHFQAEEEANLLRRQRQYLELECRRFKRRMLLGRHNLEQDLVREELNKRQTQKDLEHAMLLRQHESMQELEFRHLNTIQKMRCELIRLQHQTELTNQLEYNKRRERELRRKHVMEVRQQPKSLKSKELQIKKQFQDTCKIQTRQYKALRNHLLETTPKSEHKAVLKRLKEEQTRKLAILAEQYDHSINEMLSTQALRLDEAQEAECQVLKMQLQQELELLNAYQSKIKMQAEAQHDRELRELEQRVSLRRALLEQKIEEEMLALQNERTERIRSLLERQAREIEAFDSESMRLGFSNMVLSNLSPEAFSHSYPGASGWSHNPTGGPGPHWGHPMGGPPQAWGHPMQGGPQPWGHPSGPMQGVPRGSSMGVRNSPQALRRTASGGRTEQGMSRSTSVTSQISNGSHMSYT
Platelet-derived growth factor receptor beta, sequence (P09619 whole entry): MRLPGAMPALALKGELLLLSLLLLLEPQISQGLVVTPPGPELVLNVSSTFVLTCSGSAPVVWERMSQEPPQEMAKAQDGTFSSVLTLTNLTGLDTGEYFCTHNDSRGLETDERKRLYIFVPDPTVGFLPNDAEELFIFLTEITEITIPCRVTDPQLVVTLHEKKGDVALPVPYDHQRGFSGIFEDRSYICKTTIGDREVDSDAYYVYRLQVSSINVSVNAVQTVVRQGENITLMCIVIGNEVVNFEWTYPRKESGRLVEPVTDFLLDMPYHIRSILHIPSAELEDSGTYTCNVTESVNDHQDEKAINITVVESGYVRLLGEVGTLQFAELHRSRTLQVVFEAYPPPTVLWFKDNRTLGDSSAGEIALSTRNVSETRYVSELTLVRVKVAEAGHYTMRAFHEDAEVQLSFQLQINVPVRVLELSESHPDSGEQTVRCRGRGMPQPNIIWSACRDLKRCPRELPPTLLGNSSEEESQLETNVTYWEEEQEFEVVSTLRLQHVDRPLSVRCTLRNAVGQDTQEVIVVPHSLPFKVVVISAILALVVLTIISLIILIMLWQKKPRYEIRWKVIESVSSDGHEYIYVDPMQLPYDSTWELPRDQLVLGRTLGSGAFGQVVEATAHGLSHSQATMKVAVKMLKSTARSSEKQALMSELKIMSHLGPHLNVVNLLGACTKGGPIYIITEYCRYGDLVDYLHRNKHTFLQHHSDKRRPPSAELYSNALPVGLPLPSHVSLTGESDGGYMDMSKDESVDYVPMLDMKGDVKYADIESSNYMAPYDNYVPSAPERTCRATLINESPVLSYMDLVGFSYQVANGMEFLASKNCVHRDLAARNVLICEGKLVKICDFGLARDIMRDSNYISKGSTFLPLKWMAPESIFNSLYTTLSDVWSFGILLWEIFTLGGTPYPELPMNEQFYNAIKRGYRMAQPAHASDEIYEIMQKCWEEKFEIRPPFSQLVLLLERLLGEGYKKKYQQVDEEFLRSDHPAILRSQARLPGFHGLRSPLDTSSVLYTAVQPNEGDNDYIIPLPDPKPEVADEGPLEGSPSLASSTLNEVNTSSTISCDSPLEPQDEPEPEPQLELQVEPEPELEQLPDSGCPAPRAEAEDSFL
Serine/threonine-protein kinase pim-1, sequence (P11309 whole entry): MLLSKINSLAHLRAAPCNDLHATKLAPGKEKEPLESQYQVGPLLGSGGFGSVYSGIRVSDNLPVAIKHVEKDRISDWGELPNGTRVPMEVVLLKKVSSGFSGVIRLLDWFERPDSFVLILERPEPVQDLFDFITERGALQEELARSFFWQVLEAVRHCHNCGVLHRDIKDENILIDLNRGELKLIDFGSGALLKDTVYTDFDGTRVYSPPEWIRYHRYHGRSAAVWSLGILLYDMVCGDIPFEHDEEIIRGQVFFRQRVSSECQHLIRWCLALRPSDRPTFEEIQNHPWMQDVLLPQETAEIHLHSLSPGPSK
Insulin-like growth factor 1 receptor, sequence (P08069 31-736 limits assumed): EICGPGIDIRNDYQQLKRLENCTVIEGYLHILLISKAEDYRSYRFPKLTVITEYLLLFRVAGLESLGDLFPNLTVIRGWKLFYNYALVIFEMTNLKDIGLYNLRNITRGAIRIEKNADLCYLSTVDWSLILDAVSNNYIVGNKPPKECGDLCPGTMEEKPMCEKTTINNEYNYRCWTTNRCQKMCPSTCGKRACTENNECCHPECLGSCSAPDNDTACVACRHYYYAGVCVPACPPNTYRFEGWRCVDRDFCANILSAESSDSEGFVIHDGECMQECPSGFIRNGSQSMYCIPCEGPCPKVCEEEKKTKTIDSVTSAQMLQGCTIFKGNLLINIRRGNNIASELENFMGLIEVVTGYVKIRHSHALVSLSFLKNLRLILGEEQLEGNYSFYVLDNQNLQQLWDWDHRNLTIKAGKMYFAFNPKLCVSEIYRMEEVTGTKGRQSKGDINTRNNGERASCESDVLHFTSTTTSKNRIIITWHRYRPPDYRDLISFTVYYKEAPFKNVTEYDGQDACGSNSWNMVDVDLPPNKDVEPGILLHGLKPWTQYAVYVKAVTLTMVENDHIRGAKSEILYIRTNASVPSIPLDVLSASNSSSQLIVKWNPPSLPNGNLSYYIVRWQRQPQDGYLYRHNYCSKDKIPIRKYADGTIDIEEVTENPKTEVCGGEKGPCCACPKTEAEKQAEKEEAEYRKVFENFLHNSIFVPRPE
Insulin-like growth factor 1 receptor, sequence (P08069 741-1367 limits assumed): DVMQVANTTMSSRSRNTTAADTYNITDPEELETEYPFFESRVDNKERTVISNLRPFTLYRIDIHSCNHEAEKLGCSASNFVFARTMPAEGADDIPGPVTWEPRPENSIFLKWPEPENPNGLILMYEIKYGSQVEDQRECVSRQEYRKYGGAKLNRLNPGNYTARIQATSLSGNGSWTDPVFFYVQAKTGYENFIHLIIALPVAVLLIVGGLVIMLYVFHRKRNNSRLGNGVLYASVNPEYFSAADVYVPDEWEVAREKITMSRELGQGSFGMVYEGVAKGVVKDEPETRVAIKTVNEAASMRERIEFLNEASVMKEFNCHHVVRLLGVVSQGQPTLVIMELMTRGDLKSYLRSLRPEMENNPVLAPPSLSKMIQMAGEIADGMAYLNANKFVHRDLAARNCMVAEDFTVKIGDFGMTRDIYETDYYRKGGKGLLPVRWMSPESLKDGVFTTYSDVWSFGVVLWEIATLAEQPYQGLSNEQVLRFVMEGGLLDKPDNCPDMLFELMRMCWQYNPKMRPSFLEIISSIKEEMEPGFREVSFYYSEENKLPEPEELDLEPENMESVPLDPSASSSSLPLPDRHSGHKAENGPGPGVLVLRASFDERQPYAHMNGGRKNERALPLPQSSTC
Dual specificity protein kinase CLK4, sequence (Q9HAZ1 whole entry): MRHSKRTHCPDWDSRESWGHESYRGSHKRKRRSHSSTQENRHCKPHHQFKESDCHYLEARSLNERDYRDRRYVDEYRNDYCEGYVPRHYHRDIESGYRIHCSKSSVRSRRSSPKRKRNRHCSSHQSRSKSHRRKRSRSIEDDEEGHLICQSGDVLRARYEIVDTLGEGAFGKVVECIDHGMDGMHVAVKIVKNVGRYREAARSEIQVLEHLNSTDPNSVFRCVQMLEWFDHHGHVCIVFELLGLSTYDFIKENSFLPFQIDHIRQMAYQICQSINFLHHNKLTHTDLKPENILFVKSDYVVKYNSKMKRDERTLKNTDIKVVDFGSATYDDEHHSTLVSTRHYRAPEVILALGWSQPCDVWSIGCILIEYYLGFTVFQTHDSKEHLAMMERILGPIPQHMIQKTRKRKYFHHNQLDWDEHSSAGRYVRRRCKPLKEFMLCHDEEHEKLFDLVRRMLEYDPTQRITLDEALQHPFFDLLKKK

What is called Ki is the equilibrium dissociation constant of an inhibitor or competing ligand from its target. Consider `O=C(Cc1cccs1)Nc1nc2ccccc2s1`, for which the Ki in experiment [1] is 6.31 µM (active); in experiment [2] it was 0.316 µM (active); on Aurora kinase A it was 0.398 µM (active); in experiment [3], 0.794 µM (active); in experiment [4], 0.501 µM (active); in experiment [5], > 2 µM (inactive). In addition, the Ki in experiment [6] is 0.316 µM (active); in experiment [7], > 2.51 µM (inactive); in [8], > 5.01 µM (inactive); in [9], 3.16 µM (active); in [10], 3.16 µM (active); in experiment [11], 2 µM (active). Besides, the Ki was 0.398 µM (active) in [12] and > 6.31 µM (inactive) on Focal adhesion kinase 1.
Broadly, the IC50 is the concentration that inhibits the measured activity by half. `O=C(NNc1cc(N2CCCC2)nc(N2CCCC2)n1)c1ccc([N+](=O)[O-])cc1`: the IC50 in experiment [13] was > 67 µM (not active); on Caspase-3 [14], > 100 µM (inactive); on Caspase-3 [15] it was 16.5 µM (active); in [16], 11.9 µM (active).
Broadly, the EC50 is the concentration needed to bring the measured effect to its halfway point. Usually AC50 stands for the midpoint of the concentration-response curve, whichever way the signal moves. In the case of `O=S(=O)(O)c1cccc2c(N=Nc3ccc(O)c4ncccc34)cccc12`, the EC50 in [17] and in [18] was > 114 µM (inactive) each time. Further, in the experiment with HeLa, the AC50 was 206 µM (active).
